Laboratory results published in patent US20240384268A1, “Oligonucleotides” (Hudson Institute of Medical Research, priority 2021, published 2024).

Target: T1, TLR8 (Homo sapiens, UniProt Q9NR97)
T1 sequence (Q9NR97 27-1041): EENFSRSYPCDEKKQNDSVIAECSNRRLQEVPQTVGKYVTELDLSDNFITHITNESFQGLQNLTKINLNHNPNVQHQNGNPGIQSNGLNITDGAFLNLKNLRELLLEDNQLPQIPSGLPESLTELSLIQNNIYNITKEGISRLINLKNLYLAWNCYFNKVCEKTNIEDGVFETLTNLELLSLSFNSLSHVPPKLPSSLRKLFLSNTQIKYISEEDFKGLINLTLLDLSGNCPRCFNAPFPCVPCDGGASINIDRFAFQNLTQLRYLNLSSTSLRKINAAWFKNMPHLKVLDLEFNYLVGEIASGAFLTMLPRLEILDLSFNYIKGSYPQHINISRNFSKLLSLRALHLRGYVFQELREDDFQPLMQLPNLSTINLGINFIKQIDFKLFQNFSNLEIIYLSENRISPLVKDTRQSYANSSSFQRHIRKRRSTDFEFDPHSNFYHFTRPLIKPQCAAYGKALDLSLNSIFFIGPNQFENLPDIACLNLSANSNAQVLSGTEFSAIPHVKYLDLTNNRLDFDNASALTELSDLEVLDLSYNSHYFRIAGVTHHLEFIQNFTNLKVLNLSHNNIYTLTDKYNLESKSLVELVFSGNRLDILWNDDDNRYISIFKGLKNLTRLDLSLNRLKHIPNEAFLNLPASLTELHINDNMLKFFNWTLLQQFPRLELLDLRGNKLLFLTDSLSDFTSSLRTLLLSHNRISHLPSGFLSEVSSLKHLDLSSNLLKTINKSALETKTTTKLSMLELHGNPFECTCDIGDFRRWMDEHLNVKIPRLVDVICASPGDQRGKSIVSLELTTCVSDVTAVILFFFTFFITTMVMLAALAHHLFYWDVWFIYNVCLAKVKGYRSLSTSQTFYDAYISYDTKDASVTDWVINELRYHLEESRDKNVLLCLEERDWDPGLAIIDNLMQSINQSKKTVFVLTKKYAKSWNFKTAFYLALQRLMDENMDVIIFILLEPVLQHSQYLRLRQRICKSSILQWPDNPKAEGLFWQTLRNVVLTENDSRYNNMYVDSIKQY
Assay: HEK-TLR8 NF-κB-luciferase reporter, R848 or Motolimod stimulation (potentiation or inhibition)
Assay type: cell-based
Parameters: expressed in transfected cells; host or cells: 293XLhTLR8 (HEK293)
Conditions: averaged NF-κB-Luciferase relative to R848 condition (fold increase); for TLR8 100 nM: MOE-modified ASO at 100 nM; for TLR8 500 nM: MOE-modified ASO at 500 nM

| Sequence | TLR8 100 nM | TLR8 500 nM |
| --- | --- | --- |
| TTGCACACTTCGTACCCAAA (antisense; 2'-MOE modified, pattern not given here) [CAMSAP1-4915 MOE] | 1.555 | 1.972 |
| ATGTCCCGCCACTGGATGCT (antisense; 2'-MOE modified, pattern not given here) [EGFR-727 MOE] | 2.029 | 1.708 |
| AGATCTGGCAGCCCATCAAC (antisense; 2'-MOE modified, pattern not given here) [CTNN2B-2516 MOE] | 3.069 | 4.465 |
| CAAGGCCCTTCGCACTTCTT (antisense; 2'-MOE modified, pattern not given here) [EGFR-1225 MOE] | 1.115 | 1.236 |
| GGAGGTCTTGGCTTCGTGGA (antisense; 2'-MOE modified, pattern not given here) [MB21D1-524 MOE] | 3.976 | 5.288 |
| CTTACTTTCCGAGGTGTCCA (antisense; 2'-MOE modified, pattern not given here) [CAMSAP1-1739 MOE] | 3.892 | 4.827 |
| GGCATCCACCACGTCGTCCA (antisense; 2'-MOE modified, pattern not given here) [EGFR-3266 MOE] | 1.619 | 1.566 |
| AATCCGCCCAAAGGGAACTG (antisense; 2'-MOE modified, pattern not given here) [HPRT-1027 MOE] | 2.685 | 4.659 |
| GGTGGTGGCCACCCATCTCA (antisense; 2'-MOE modified, pattern not given here) [CTNN2B-2479 MOE] | 1.491 | 0.874 |
| GCTTCAGGCGCTGCCTTGCC (antisense; 2'-MOE modified, pattern not given here) [CAMSAP1-2709 MOE] | 0.985 | 0.620 |
| AGGTCTTGGCTTCGTGGAGC (antisense; 2'-MOE modified, pattern not given here) [MB21D1-522 MOE] | 3.657 | 5.064 |
| ACAACCCCTTTCACCATCCC (antisense; 2'-MOE modified, pattern not given here) [MB21D1-689 MOE] | 8.841 | 14.808 |
| TGTCCTTGCACGTGGCTTCG (antisense; 2'-MOE modified, pattern not given here) [EGFR-1014 MOE] | 1.187 | 1.433 |
| AACACTTCGTGGGGTCCTTT (antisense; 2'-MOE modified, pattern not given here) [HPRT-664 MOE] | 2.725 | 3.167 |
| TCCAACACTTCGTGGGGTCC (antisense; 2'-MOE modified, pattern not given here) [HPRT-667 MOE] | 1.142 | 1.432 |
| GCGACTATACGCGCAATATG (antisense; 2'-MOE modified, pattern not given here) [NC5 2′MOE] | 1.067 | 0.883 |
| TGTGATGGCCTCCCATCTCC (antisense; 2'-MOE modified, pattern not given here) [HPRT-332 MOE] | 0.940 | 0.938 |
| GTCTTGGCTTCGTGGAGCAG (antisense; 2'-MOE modified, pattern not given here) [MB21D1-520 MOE] | 2.383 | 3.536 |
| GGTGTCCTTGCACGTGGCTT (antisense; 2'-MOE modified, pattern not given here) [EGFR-1016 MOE] | 1.532 | 1.019 |
| ACCCACTTGGCAGACCATCA (antisense; 2'-MOE modified, pattern not given here) [CTNN2B-1575 MOE] | 2.822 | 3.985 |

| Sequence | TLR8 100 nM | TLR8 500 nM |
| --- | --- | --- |
| GCCGCTTTTCTGTCTGGTTC (antisense; 2'-MOE modified, pattern not given here) [CTNN2B-311 MOE] | 0.968 | 0.369 |
| GGAGATTTCAGAGCAGCTTC (antisense; 2'-MOE modified, pattern not given here) [EGFR-4885 MOE] | 3.122 | 4.308 |
| CACCCACTTGGCAGACCATC (antisense; 2'-MOE modified, pattern not given here) [CTNN2B-1576 MOE] | 1.440 | 1.502 |
| CCAACACTTCGTGGGGTCCT (antisense; 2'-MOE modified, pattern not given here) [HPRT-666 MOE] | 1.223 | 1.185 |
| GAGTCTCTGGAGCTTCCTCT (antisense; 2'-MOE modified, pattern not given here) [CAMSAP1-2456 MOE] | 0.849 | 0.683 |
| TCAAAGGACTGAGGAAAGGG (antisense; 2'-MOE modified, pattern not given here) [CAMSAP1-6273 MOE] | 3.896 | 3.406 |
| CTGTGATCTTGACATGCTGC (antisense; 2'-MOE modified, pattern not given here) [EGFR-2790 MOE] | 1.308 | 1.387 |
| TAGGCACTTTGCCTCCTTCT (antisense; 2'-MOE modified, pattern not given here) [EGFR-2859 MOE] | 0.773 | 0.884 |
| TTGCCATGCTGGCTCGGACT (antisense; 2'-MOE modified, pattern not given here) [CAMSAP1-2584 MOE] | 0.881 | 0.572 |
| GCGGAGGTCTTGGCTTCGTG (antisense; 2'-MOE modified, pattern not given here) [MB21D1-526 MOE] | 1.598 | 2.226 |
| CAGATAGCACCTTCAGCACT (antisense; 2'-MOE modified, pattern not given here) [CTNN2B-1294 MOE] | 1.773 | 2.356 |
| GTCCTTGCACGTGGCTTCGT (antisense; 2'-MOE modified, pattern not given here) [EGFR-1013 MOE] | 1.900 | 1.593 |
| GATGCTCCTCGGTCTCCCTT (antisense; 2'-MOE modified, pattern not given here) [CAMSAP1-1850 MOE] | 1.392 | 1.954 |
| ACTGACTGTCTTGAGGGTTC (antisense; 2'-MOE modified, pattern not given here) [MB21D1-1483 MOE] | 2.454 | 3.185 |
| GAGGTCTTGGCTTCGTGGAG (antisense; 2'-MOE modified, pattern not given here) [MB21D1-523 MOE] | 1.822 | 2.164 |
| TGTCTTCATCGGCCCTGCCT (antisense; 2'-MOE modified, pattern not given here) [CAMSAP1-2112 MOE] | 1.331 | 1.178 |
| TTGGCTCGGCTTGCCTACTT (antisense; 2'-MOE modified, pattern not given here) [CAMSAP1-5594 MOE] | 1.096 | 0.813 |
| GCGTATTATAGCCGATTAAC (antisense; 2'-MOE modified, pattern not given here) [NC1 2′MOE] | 1.883 | 2.777 |
| GATGGCCTCCCATCTCCTTC (antisense; 2'-MOE modified, pattern not given here) [HPRT-329 MOE] | 0.979 | 1.698 |
